# In PubChem BioAssay (NCI):
#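 Exposure lasted 48 hours, with cells grown in 96-well plates and compounds tested at five concentrations. GI50 = concentration required for 50% inhibition of growth. TGI is the concentration that stops growth completely.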
# Test system: SNB-78 CNS
# Experiment: DTP human tumour cell line panel, 48 h
row,Compound,TGI [µM]
1,Cc1c(C(=O)/C=C/c2ccccc2)[n+](=O)c2ccccc2n1[O-],> 100
2,N#CC1CC2(C1)OCCS2 (stereo unspecified),> 100
3,COc1ccc(CC2NCCc3cc(OC)c(OC)cc32)cc1Br (stereo unspecified),> 100
4,c1ccc(C2Nc3ccccc3C3OCCCC23)cc1 (stereo unspecified),> 100

# Test system: LXFL 529 NSCLC
# Experiment: DTP human tumour cell line panel, 48 h
Compound,TGI [µM],GI50 [µM]
O=C1[C@@H]2C(c3ccccc3F)=NO[C@@H]2C(=O)N1c1ccc(Cc2ccc(N3C(=O)[C@H]4C(c5ccccc5F)=NO[C@H]4C3=O)cc2)cc1,> 100,–
C=CCc1ccc(Oc2cc(CC=C)c3c(c2O)O[C@@H](CO)[C@H]3c2ccc(O)c(-c3cc(CC=C)ccc3O)c2)cc1,90.7,–
O=C(NCO)NCOCn1c(=O)n(CO)c(=O)n(CO)c1=O,42.8,–
Clc1ccc2c(c1)-c1c3c(nn1-c1ccccc1)-c1ccccc1SC3O2 (stereo unspecified),> 100,–
O=C1OC2CCCC[C@@H]2C2C[C@]34CCCCC3[C@@H](C(=O)O4)C12 (stereo partly specified),> 100,–
CN(C)c1cc[c]([Sn]([c]2ccc(N(C)C)cc2)([c]2ccc(N(C)C)cc2)[c]2ccc(N(C)C)cc2)cc1,12.9,3.09
C=C1C(=O)OC2/C=C(\COC(C)=O)CCC(OC(C)=O)C3=CC(OC3=O)C12 (stereo unspecified),3.56,–
C/C(N=NC(=S)N(C)C)=C1\C=CC=CN1O,> 100,–
CCN(CC)c1ccc(N=Nc2ccc(-c3nc4ccc[n+](C)c4s3)cc2)cc1,17.9,–
NC(=O)NCc1c(C(N)=O)ncn1Cc1ccccc1,> 100,–
O=C1CSC(/C(=N/Nc2ccccc2)c2nc3ccccc3[nH]2)=N1,> 100,–
O=C(c1ccccc1)C1OC12C(=O)Nc1ccccc12 (stereo unspecified),30.3,–
COc1ccc2nc(NC(=O)C(=O)C(C#N)c3ccc([N+](=O)[O-])cc3)sc2c1 (stereo unspecified),> 100,–
O=C(O)[C@H](NS(=O)(=O)c1ccc([N+](=O)[O-])cc1)c1ccccc1,> 100,–
S=C1OC2CCCC[C@H]2O1 (stereo partly specified),> 100,–
O=C1/C(=C/c2cccc([N+](=O)[O-])c2)COc2ccc(Br)cc21,> 100,–
CSC(C1c2ccccc2N(c2ccc(C)cc2)c2[nH]c(=O)n(C)c(=O)c21)S(=O)(=O)c1ccc(C)cc1 (stereo unspecified),> 100,–
CCOC(=O)NC(=O)c1cn(CCCOC(=O)CCCCCCCCCCC(=O)OCCCn2cc(C(=O)NC(=O)OCC)c(=O)[nH]c2=O)c(=O)[nH]c1=O,> 100,–
COc1cc(/C=C(\C#N)c2ccccc2)cc(OC)c1,> 100,–
N#Cc1cccnc1Cl,> 100,–
CCCCCCCCCCCC(=O)OCC1OC(OC)C(NC(=O)N(CCCl)N=O)C(O)C1O (stereo unspecified),26.4,–
C=CC/C=C/C/C=C/CCCCCCCc1cccc(O)c1C(=O)O,> 100,–
COc1ccc(OC)c2c(C(=O)O)c(Cc3ccccc3)ccc12,> 100,–
O=C(Nc1c(Cl)cc([N+](=O)[O-])cc1Cl)C(=O)C(C1OC(=O)c2ccccc21)[N+](=O)[O-] (stereo unspecified),> 100,–
Cc1c(C(=O)/C=C/c2ccccc2)[n+](=O)c2ccccc2n1[O-],26,–
N#CC1CC2(C1)OCCS2 (stereo unspecified),> 100,–
C1C[OH+]CC[OH+]CC[OH+]CC[OH+]CC[OH+]1.[Cl-].[V],> 100,> 100
COc1ccc(CC2NCCc3cc(OC)c(OC)cc32)cc1Br (stereo unspecified),> 100,–
c1ccc(C2Nc3ccccc3C3OCCCC23)cc1 (stereo unspecified),> 100,–

# Test system: RXF-631 renal
# Experiment: DTP human tumour cell line panel, 48 h
row,Compound,TGI [µM]
1,O=C1[C@@H]2C(c3ccccc3F)=NO[C@@H]2C(=O)N1c1ccc(Cc2ccc(N3C(=O)[C@H]4C(c5ccccc5F)=NO[C@H]4C3=O)cc2)cc1,> 100
2,O=C(NCO)NCOCn1c(=O)n(CO)c(=O)n(CO)c1=O,> 100
3,C=C1C(=O)OC2/C=C(\COC(C)=O)CCC(OC(C)=O)C3=CC(OC3=O)C12 (stereo unspecified),48
4,C/C(N=NC(=S)N(C)C)=C1\C=CC=CN1O,> 100
5,O=C1CCC(O)=C1N=Nc1ccccc1,> 100
6,O=C(c1ccccc1)C1OC12C(=O)Nc1ccccc12 (stereo unspecified),> 100
7,O=C(O)[C@H](NS(=O)(=O)c1ccc([N+](=O)[O-])cc1)c1ccccc1,> 100
8,S=C1OC2CCCC[C@H]2O1 (stereo partly specified),> 100
9,CCOC(=O)NC(=O)c1cn(CCCOC(=O)CCCCCCCCCCC(=O)OCCCn2cc(C(=O)NC(=O)OCC)c(=O)[nH]c2=O)c(=O)[nH]c1=O,> 100
10,N#Cc1cccnc1Cl,> 100
11,C=CC/C=C/C/C=C/CCCCCCCc1cccc(O)c1C(=O)O,> 100
12,O=C(Nc1c(Cl)cc([N+](=O)[O-])cc1Cl)C(=O)C(C1OC(=O)c2ccccc21)[N+](=O)[O-] (stereo unspecified),> 100
13,c1ccc(C2Nc3ccccc3C3OCCCC23)cc1 (stereo unspecified),> 100

# Test system: XF 498 CNS
# Experiment: DTP human tumour cell line panel, 48 h
row,Compound,TGI [µM]
1,O=C1[C@@H]2C(c3ccccc3F)=NO[C@@H]2C(=O)N1c1ccc(Cc2ccc(N3C(=O)[C@H]4C(c5ccccc5F)=NO[C@H]4C3=O)cc2)cc1,> 100
2,O=C(NCO)NCOCn1c(=O)n(CO)c(=O)n(CO)c1=O,55.5
3,Clc1ccc2c(c1)-c1c3c(nn1-c1ccccc1)-c1ccccc1SC3O2 (stereo unspecified),> 100
4,O=C1OC2CCCC[C@@H]2C2C[C@]34CCCCC3[C@@H](C(=O)O4)C12 (stereo partly specified),> 100
5,C=C1C(=O)OC2/C=C(\COC(C)=O)CCC(OC(C)=O)C3=CC(OC3=O)C12 (stereo unspecified),5.33
6,NC(=O)NCc1c(C(N)=O)ncn1Cc1ccccc1,> 100
7,O=C1CSC(/C(=N/Nc2ccccc2)c2nc3ccccc3[nH]2)=N1,73.4
8,O=C(c1ccccc1)C1OC12C(=O)Nc1ccccc12 (stereo unspecified),> 100
9,O=C(O)[C@H](NS(=O)(=O)c1ccc([N+](=O)[O-])cc1)c1ccccc1,> 100
10,S=C1OC2CCCC[C@H]2O1 (stereo partly specified),> 100
11,O=C1/C(=C/c2cccc([N+](=O)[O-])c2)COc2ccc(Br)cc21,> 100
12,CSC(C1c2ccccc2N(c2ccc(C)cc2)c2[nH]c(=O)n(C)c(=O)c21)S(=O)(=O)c1ccc(C)cc1 (stereo unspecified),> 100
13,CCOC(=O)NC(=O)c1cn(CCCOC(=O)CCCCCCCCCCC(=O)OCCCn2cc(C(=O)NC(=O)OCC)c(=O)[nH]c2=O)c(=O)[nH]c1=O,> 100
14,COc1cc(/C=C(\C#N)c2ccccc2)cc(OC)c1,> 100
15,N#Cc1cccnc1Cl,> 100
16,CCCCCCCCCCCC(=O)OCC1OC(OC)C(NC(=O)N(CCCl)N=O)C(O)C1O (stereo unspecified),27.6
17,C=CC/C=C/C/C=C/CCCCCCCc1cccc(O)c1C(=O)O,> 100
18,COc1ccc(OC)c2c(C(=O)O)c(Cc3ccccc3)ccc12,> 100
